# Experimental data: patent US11970512B2, “Amphotericin B derivatives with improved therapeutic index” (The Board of Trustees of the University of Illinois, priority 2013, dated 2024)
# Like-named read-outs stand apart in the source and are kept apart here.
# Columns and labels:
# yeast = conditions: in vitro studies; cited from earlier work
# Saccharomyces cerevisiae = assay: Broth microdilution assay (MIC) against Saccharomyces cerevisiae; format: cell-based; conditions: read-out: MIC (μM) S.cerevisiae
# Procedure: (§1) With efficient access to this novel AmB chemotype, ureas 2-4 were compared to AmB and a range of previously reported AmB derivatives in an in vitro antifungal and human cell toxicity screen. Yeast toxicity was measured with broth microdilution assays (MIC) against Saccharomyces cerevisiae. Human cell toxicity was studied by determining the amount of compound required to cause 90% hemolysis of human erythrocytes (EH90). […] Methyl esterification (AmBME) retains antifungal activity at 0.25 μM against S. cerevisiae, while decreasing hemolysis concentration to one third that seen with AmB. […] Hemolysis activity remained similar to AmBME and C41MeAmB. Bis-amino alkylated amide derivative AmBNR2 was previously shown to moderately improve the therapeutic index.^[19]
# (§2) Each derivative proposed herein is tested for biological activity against both yeast and human cells to determine its therapeutic index. A broth microdilution experiment determines the MIC (minimum inhibitory concentration) of each derivative against S. cerevisiae and the clinically relevant C. albicans, thereby establishing the antifungal activity of each novel derivative. To test for toxicity against human cells, each compound is exposed to a hemolysis assay against red blood cells which determines the concentration required to cause 90% lysis of human red blood cells (EH90). Additionally, each compound is exposed to human primary renal tubule cells to determine the toxicity of each compound against kidney cells. These assays when compared against the known values of AmB against the same cell lines determine the improvement in therapeutic index of each compound.
# human erythrocytes = format: cell-based; conditions: for EH90 as multiple of that observed with AmB: human
# Procedure: as §1, §2
# Candida albicans = assay: Broth microdilution assay (MIC) against C. albicans; format: cell-based; conditions: read-out: MIC (μM) against C. albicans
# Procedure: Urea derivatives 2-4 maintain potent antifungal activity ranging from 0.125 μM to 3 μM against S. cerevisiae. […] AmBCU required 324 μM to cause 90% hemolysis in red blood cells, more than 30× required by AmB. Encouraged by this initial therapeutic index screen the urea series was further tested against the clinically relevant fungal cell line Candida albicans. C. albicans is the most common human fungal infection. AmB inhibits yeast grown of C. albicans at 0.25 μM. Similar to the trend seen with S. cerevisiae, the potency of urea derivatives […] increased with increasing amount of cationic character. AmBAU, AmBMU, and AmBCU require 0.25, 0.5, and 1 μM respectively (Table 2).
# as §2
# C. albicans = assay: Mouse model of disseminated candidiasis, kidney fungal burden; format: in vivo; conditions: neutropenic mice; for reduction of kidney fungal burden relative to AmB: single intraperitoneal 16 mg/kg dose, 24 hours post inoculation; for reducing the fungal burden present in the kidneys, compared with AmB (in words): single intraperitoneal dose, all three tested doses (1, 4, and 16 mg/kg)
# Procedure: FIG. 39 is a group of three graphs depicting kidney fungal load (colony forming units, cfu) in neutropenic mice inoculated intravenously with C. albicans and then treated two hours later with a single intraperitoneal dose of vehicle control, AmB, AmBMU, or AmBAU. FIG. 39A, 1 mg/kg AmB, AmBMU, or AmBAU. FIG. 39B, 4 mg/kg AmB, AmBMU, or AmBAU. FIG. 39C, 16 mg/kg AmB, AmBMU, or AmBAU.
# The antifungal efficacies of AmBMU and AmBAU were tested in a mouse model of disseminated candidiasis. In this experiment neutropenic mice were infected with C. albicans via the tail vein, and then 2 hours post infection the mice were treated with a single intraperitoneal injection of AmB, AmBMU, or AmBAU. Then 2, 6, 12, and 24 hours post infection the mice were sacrificed, and the fungal burden present in their kidneys was quantified. […] The differences were most pronounced at the 16 mg/kg dose at 24 hours post inoculation. Relative to AmB, AmBMU reduced the fungal burden by 1.2 log units (p≤0.001), and AmBAU reduced the fungal burden by nearly 3 log units (p≤0.0001).
# [1] = Acute toxicity, single intravenous administration to healthy mice, lethality; format: in vivo
# Procedure: FIG. 40 is a graph depicting lethality in healthy mice of single intravenous administration in the doses indicated of AmB, AmBMU, or AmBAU.
# In a separate set of experiments, acute toxicity was evaluated by single intravenous administration of 1, 2, 4, 8, 16, 32, or 64 mg/kg AmB or its derivatives to healthy mice, followed by monitoring for lethality. […] AmBAU was drastically less toxic with >50% lethality not being reached until the 64 mg/kg dosage group.
# [2] = Saccharomyces cerevisiae, broth microdilution
# [3] = Candida albicans, broth microdilution
smiles,measurement,setting,value
CC1C=CC=CC=CC=CC=CC=CC=CC(OC2CC(N)C(O)C(C)O2)CC2OC(O)(CC(O)CC(O)C(O)CCC(O)CC(O)CC(=O)OC(C)C(C)C1O)CC(O)C2C(=O)O (stereo not drawn) [C2′deOAmB],toxicity to yeast,yeast,toxic to yeast
"COC(=O)[C@H]1[C@@H]2C[C@@H](O[C@@H]3O[C@H](C)[C@@H](O)[C@H](N)[C@@H]3O)/C=C/C=C/C=C/C=C/C=C/C=C/C=C/[C@H](C)[C@@H](O)[C@@H](C)[C@H](C)OC(=O)C[C@H](O)C[C@H](O)CC[C@@H](O)[C@H](O)C[C@H](O)C[C@](O)(C[C@@H]1O)O2 [AmBME, reference compound]",MIC,Saccharomyces cerevisiae; broth microdilution,0.25 µM
same,EH90 (μM) red blood cells,human erythrocytes,30.67 ± 5.38 µM
same,hemolysis concentration relative to AmB,human erythrocytes,one third
CC1OC(O[C@H]2/C=C/C=C/C=C/C=C/C=C/C=C/C=C/[C@H](C)[C@@H](O)[C@@H](C)[C@H](C)OC(=O)C[C@H](O)C[C@H](O)CC[C@@H](O)[C@H](O)C[C@H](O)C[C@]3(O)C[C@H](O)[C@@H](NC(=O)NCCN)C(C2)O3)C(O)C(N)C1O (stereo partly drawn) [AmBAU],MIC,Saccharomyces cerevisiae; Saccharomyces cerevisiae,0.125 µM
same,cell-killing activity / toxicity towards human red blood cells (in words),human erythrocytes,drastically decreased toxicity towards red blood cells
same,EH90 (μM) red blood cells,human erythrocytes; amount of compound required to cause 90% hemolysis of human erythrocytes,>500 µM
same,MIC,Candida albicans; Candida albicans,0.25 µM
same,reduction of kidney fungal burden relative to AmB,C. albicans,~3 log units
same,"reducing the fungal burden present in the kidneys, compared with AmB (in words)",C. albicans,substantially more effective than AmB
same,dosage group at which >50% lethality was reached,[1]; single intravenous administration,64 mg/kg
CC1OC(O[C@H]2/C=C/C=C/C=C/C=C/C=C/C=C/C=C/[C@H](C)[C@@H](O)[C@@H](C)[C@H](C)OC(=O)C[C@H](O)C[C@H](O)CC[C@@H](O)[C@H](O)C[C@H](O)C[C@]3(O)C[C@H](O)[C@@H](NC(=O)NCCC(=O)O)C(C2)O3)C(O)C(N)C1O (stereo partly drawn) [AmBCU],MIC,Saccharomyces cerevisiae; [2],3 µM
same,cell-killing activity / toxicity towards human red blood cells (in words),human erythrocytes,drastically decreased toxicity towards red blood cells
same,EH90 as multiple of that observed with AmB,human erythrocytes,more than 30 ×
same,MIC,Candida albicans; [3],1 µM
CNC(=O)N[C@H]1C2C[C@@H](OC3OC(C)C(O)C(N)C3O)/C=C/C=C/C=C/C=C/C=C/C=C/C=C/[C@H](C)[C@@H](O)[C@@H](C)[C@H](C)OC(=O)C[C@H](O)C[C@H](O)CC[C@@H](O)[C@H](O)C[C@H](O)C[C@](O)(C[C@@H]1O)O2 (stereo partly drawn) [AmBMU],MIC,Saccharomyces cerevisiae; [2],0.25 µM
same,cell-killing activity / toxicity towards human red blood cells (in words),human erythrocytes,drastically decreased toxicity towards red blood cells
same,EH90 as multiple of that observed with AmB,human erythrocytes,greater than 45 ×
same,MIC,Candida albicans; [3],0.5 µM
same,reduction of kidney fungal burden relative to AmB,C. albicans,1.2 log units
same,"reducing the fungal burden present in the kidneys, compared with AmB (in words)",C. albicans,substantially more effective than AmB
same,lethality,[1]; single intravenous 64 mg/kg,survived with no observable toxicity
"CNC(=O)[C@H]1[C@@H]2C[C@@H](O[C@@H]3O[C@H](C)[C@@H](O)[C@H](N)[C@@H]3O)/C=C/C=C/C=C/C=C/C=C/C=C/C=C/[C@H](C)[C@@H](O)[C@@H](C)[C@H](C)OC(=O)C[C@H](O)C[C@H](O)CC[C@@H](O)[C@H](O)C[C@H](O)C[C@](O)(C[C@@H]1O)O2 [AmBMA, reference compound]",MIC,Saccharomyces cerevisiae; broth microdilution,0.25 µM
same,EH90 (μM) red blood cells,human erythrocytes,15.32 ± 3.39 µM
"C[C@@H]1[C@H](O)[C@@H](C)/C=C/C=C/C=C/C=C/C=C/C=C/C=C/[C@H](O[C@@H]2O[C@H](C)[C@@H](O)[C@H](N)[C@@H]2O)C[C@@H]2O[C@](O)(C[C@@H](O)C[C@@H](O)[C@H](O)CC[C@@H](O)C[C@@H](O)CC(=O)O[C@H]1C)C[C@H](O)[C@H]2C(=O)O [AmB, amphotericin B]",MIC,Saccharomyces cerevisiae; broth microdilution,0.5 µM
same,MIC,Candida albicans; broth microdilution,0.25 µM
same,lethality,[1]; single intravenous 4 mg/kg,All mice in the 4 mg/kg AmB dosage group died within seconds
